IC50 and Ki data for eight compounds are collected here from patent publication US11884649B2, “IRE1α inhibitors and uses thereof” (The Regents of the University of California, priority 2020, dated 2024).

T1 sequence (O75460 547-977): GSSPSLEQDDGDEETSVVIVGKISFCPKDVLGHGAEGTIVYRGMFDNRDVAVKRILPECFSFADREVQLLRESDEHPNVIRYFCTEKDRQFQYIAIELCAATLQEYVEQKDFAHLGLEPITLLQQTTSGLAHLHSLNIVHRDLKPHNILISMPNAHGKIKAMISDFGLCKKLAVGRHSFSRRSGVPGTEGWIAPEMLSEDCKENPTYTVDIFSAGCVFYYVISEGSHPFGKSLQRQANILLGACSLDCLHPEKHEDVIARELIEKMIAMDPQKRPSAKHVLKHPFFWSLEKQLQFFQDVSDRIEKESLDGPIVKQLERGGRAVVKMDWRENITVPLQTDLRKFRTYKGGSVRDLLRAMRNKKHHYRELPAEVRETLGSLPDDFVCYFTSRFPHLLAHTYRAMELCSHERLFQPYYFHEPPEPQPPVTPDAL

One experiment concerns the target T1, IRE1α* (Homo sapiens, UniProt O75460).
T1 construct: human IRE1α (residues 547-977, IRE1α*) was expressed in SF9 insect cells; His6 (N); made in house; host or cells: Sf9 insect cells (Bac-to-Bac baculovirus)
The experiment in a line: In vitro kinase activity assay (IRE1α kinase inhibition). The format is biochemical. The conditions noted are these: IRE1α kinase inhibition; read-out: IC50 IRE1a. On the procedure: A construct containing the cytosolic kinase and RNase domains of human IRE1α (residues 547-977, IRE1α*) was expressed in SF9 insect cells by using the Bac-to-Bac baculovirus expression system (Invitrogen) with a His6 tag at the N-terminus and purified with a nickel-nitriloacetic acid (Qiagen) column. To generate dP-IRE1α*, we removed basal phosphorylation sites by incubating IRE1α* with λ-PPase (New England Biolabs) at a molar ratio of 5:1 (IRE1α*: λ-PPase) in 50 mM HEPES pH 7.5, 100 mM NaCl, 1 mM MnCl2, 2 mM dithiothreitol (DTT) and 0.01% Brij 35 detergent (v/v) overnight at 4° C. Dephosphorylation was verified through western blotting using a universal phospho-protein detection agent (biotin-pIMAGO (Tymora Analytical Operations, Cat. No.: FL800) and imaged using a streptavidin-linked fluorophore.
In Vitro Kinase Activity Assay
Inhibitors (initial concentration of 10 or 60 μM, three-fold serial dilutions) were incubated with IRE1α* in cleavage buffer (20 mM HEPES, 0.05% Triton X-100 (v/v), 50 mM KCl, 1 mM MgCl2, 1 mM DTT, pH 7.5) for 30 min, followed by incubation with 10 μCi [γ^32P] ATP (3,000 Ci mmol^−1, PerkinElmer) at 23° C. for 3 hours. Samples were then spotted onto glass fiber paper (Easytab-C Glass Fiber Filter Paper, Perkin Elmer) and washed in twice with 0.5% phosphoric acid and autoradiographed using a GE Typhoon FLA 9000 Imager. Blots were quantitated using ImageQuant software. The percent inhibition was quantified by setting the background (no kinase well) as 0 and standardizing to IRE1α* without compound treatment (IRE1α*+DMSO). Dose-response curves were fit using “one-site fit log IC50” parameter using GraphPad Prism analysis software.
Compound Characterization (IC50 IRE1α Kinase Inhibition)
A word on the IC50: it is the point on the concentration scale where inhibition reaches its midpoint. For the compound `Cc1cc(NS(=O)(=O)CC(F)(F)F)c2ccccc2c1Oc1ncccc1-c1ccnc(N[C@H]2CCCNC2)n1` [LBC-0000389, (S)-2,2,2-trifluoro-N-(3-methyl-4-((3-(2-(piperidin-3-ylamino)pyrimidin-4-yl)pyridin-2-yl)oxy)naphthalen-1-yl) ethane sulfonamide], the 50% inhibitory concentration (IC50) amounted to 8 nM.

For `Cc1c(F)c(NS(=O)(=O)CC(F)(F)F)c2ccccc2c1Oc1ncccc1-c1ccnc(N[C@H]2CCCNC2)n1` [LBC-0000390, (S)-2,2,2-trifluoro-N-(2-fluoro-3-methyl-4-((3-(2-(piperidin-3-ylamino)pyrimidin-4-yl)pyridin-2-yl)oxy)naphthalen-1-yl) ethane-1-sulfonamide], the half-inhibitory concentration (IC50) came out at 9.5 nM.

For `O=S(=O)(CC(F)(F)F)Nc1ccc(Oc2ncccc2-c2ccnc(N[C@@H]3CNC[C@@H](F)C3)n2)c2ccccc12` [LBC-0000398, 2,2,2-trifluoro-N-(4-((3-(2-(((3S,5S)-5-fluoropiperidin-3-yl)amino)pyrimidin-4-yl)pyridin-2-yl)oxy)naphthalen-1-yl) ethane-1-sulfonamide], the IC50 came out at 7.2 nM.

On to `Cc1c(F)c(NS(=O)(=O)CC(F)(F)F)c2ccccc2c1Oc1ncccc1-c1ccnc(N[C@@H]2CNC[C@@H](F)C2)n1` [LBC-0000399, 2,2,2-trifluoro-N-(2-fluoro-4-((3-(2-(((3S,5S)-5-fluoropiperidin-3-yl)amino)pyrimidin-4-yl)pyridin-2-yl)oxy)-3-methylnaphthalen-1-yl) ethane-1-sulfonamide], for which the 50% inhibitory concentration (IC50) came out at 5.1 nM.

As to `Cc1c(F)c(NS(C)(=O)=O)c2ccccc2c1Oc1ncccc1-c1ccnc(N[C@H]2CCCNC2)n1` [LBC-0000401, (S)—N-(2-fluoro-3-methyl-4-((3-(2-(piperidin-3-ylamino)pyrimidin-4-yl)pyridin-2-yl)oxy)naphthalen-1-yl) methane sulfonamide], the half-maximal inhibitory concentration (IC50) is 16 nM.

Still in this experiment, the particulars now being: read-out: Inhibition of IRE1α*'s kinase activity, Ki.
For orientation: Ki means the equilibrium dissociation constant of an inhibitor or competing ligand from its target. As for `Nc1ccc(Oc2ncccc2-c2ccnc(N[C@H]3CC[C@H](N)CC3)n2)cc1F` [compound 1, (1r,4r)-N1-(4-(2-(4-amino-3-fluorophenoxy)pyridin-3-yl)pyrimidin-2-yl) cyclohexane-1,4-diamine], the inhibitory constant (Ki) worked out at 480 nM.

For the compound `N[C@H]1CC[C@H](Nc2nccc(-c3cccnc3Oc3ccc(NS(=O)(=O)C4CC4)c4ccccc34)n2)CC1` [compound 5, N-(4-(3-(2-((1r,4r)-4-aminocyclohexylamino)pyrimidin-4-yl)pyridin-2-yloxy)naphthalen-1-yl)cyclopropanesulfonamide], the Ki came to 140 nM.

Turning to `N[C@H]1CC[C@H](Nc2nccc(-c3cccnc3Oc3cccc4c(NS(=O)(=O)C5CCC5)cccc34)n2)CC1` [compound 6, N-(5-(3-(2-((1r,4r)-4-aminocyclohexylamino)pyrimidin-4-yl)pyridin-2-yloxy)naphthalen-1-yl) cyclobutanesulfonamide], the Ki worked out at 98 nM.
